Legend:
sedge, umbrella = experiment: Test B flooded paddy test; format: in vivo, Cyperus difformis; details: Flood, scale of 0 to 100 where 0 is no effect and 100 is complete control
Procedure, shortened: (§1)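 Plants grown to 2-leaf stage; pots flooded 3 cm above soil and compound applied directly into paddy water, depth held throughout. Visual rating against untreated controls after 13 to 15 days in greenhouse, 0 (no effect) to 100 (complete control).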

barnyardgrass [1] = experiment: Test B flooded paddy test; format: in vivo, Echinochloa crus-galli; details: Flood, scale of 0 to 100 where 0 is no effect and 100 is complete control
Procedure, shortened: as §1

pigweed = experiment: Test A pre-/postemergence herbicide test; format: in vivo, Amaranthus retroflexus
Procedure, shortened: (§2)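 Approximately 10 days after treatment in the greenhouse, plants were compared with untreated controls and given a 0–100 visual injury rating. Applications: preemergence directed soil spray; postemergence on 2–10 cm plants at the one- to two-leaf stage.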

ducksalad = experiment: Test B flooded paddy test; format: in vivo, Heteranthera limosa; details: Flood, scale of 0 to 100 where 0 is no effect and 100 is complete control
Procedure, shortened: as §1

rice = experiment: Test B flooded paddy test; format: in vivo, Oryza sativa; details: Flood, scale of 0 to 100 where 0 is no effect and 100 is complete control
Procedure, shortened: as §1

barnyardgrass [2] = experiment: Test A pre-/postemergence herbicide test; format: in vivo, Echinochloa crus-galli
Procedure, shortened: as §2

corn = experiment: Test A pre-/postemergence herbicide test; format: in vivo, Zea mays
Procedure, shortened: as §2

velvetleaf = experiment: Test A pre-/postemergence herbicide test; format: in vivo, Abutilon theophrasti
Procedure, shortened: as §2

wheat = experiment: Test A pre-/postemergence herbicide test; format: in vivo, Triticum aestivum
Procedure, shortened: as §2

giant foxtail = experiment: Test A pre-/postemergence herbicide test; format: in vivo, Setaria faberii
Procedure, shortened: as §2

crabgrass, large = experiment: Test A pre-/postemergence herbicide test; format: in vivo, Digitaria sanguinalis
Procedure, shortened: as §2

morningglory = experiment: Test A pre-/postemergence herbicide test; format: in vivo, Ipomoea spp.
Procedure, shortened: as §2

[3] = 125 g ai/ha, visual rating, 0 to 100 scale, 0 no effect, 100 complete control, approximately 10 days, preemergence
[4] = Postemergence, 125 g ai/ha, 0 to 100 scale, 0 is no effect, 100 is complete control
[5] = preemergence, 500 g ai/ha, 0 to 100 scale, 0 is no effect and 100 is complete control
[6] = Postemergence, 500 g ai/ha, 0 to 100 scale (0 no effect, 100 complete control)
[7] = Preemergence, 125 g ai/ha, 0 to 100 scale where 0 is no effect and 100 is complete control

SMILES	Plant response rating, Sedge, Umbrella (sedge, umbrella; 250 g ai/ha)	Plant response rating, Barnyardgrass (barnyardgrass [1]; 250 g ai/ha)	Plant response rating, Pigweed (pigweed; [4])	Plant response rating, Pigweed (pigweed; [5])	Plant response rating, Ducksalad (ducksalad; 250 g ai/ha)	Plant response rating, Rice (rice; 250 g ai/ha)	Plant response rating, Barnyardgrass (barnyardgrass [2]; [4])	Plant response rating, Barnyardgrass (barnyardgrass [2]; [5])	Plant response rating, Corn (corn; [4])	Plant response rating, Corn (corn; [5])	Plant response rating, Velvetleaf (velvetleaf; [4])	Plant response rating, Velvetleaf (velvetleaf; [5])	Plant response rating, Wheat (wheat; [4])	Plant response rating, Wheat (wheat; [5])	Plant response rating, Foxtail, Giant (giant foxtail; [4])	Plant response rating, Foxtail, Giant (giant foxtail; [5])	Plant response rating, Crabgrass, Large (crabgrass, large; [4])	Plant response rating, Crabgrass, Large (crabgrass, large; [5])	Plant response rating, Morningglory (morningglory; [4])	Plant response rating, Morningglory (morningglory; [5])	also measured
COc1ccc(C2CNC(=O)C2C(=O)Nc2ccccc2C(F)(F)F)cc1F (racemic) [Compound 199]	0	20	0	0	90	0	50	60	0	0	0	0	0	0	0	90	60	100	0	0	Plant response rating, Sedge, Umbrella (sedge, umbrella; 1000 g ai/ha): 0; Plant response rating, Barnyardgrass (barnyardgrass [1]; 1000 g ai/ha): 20; Plant response rating, Pigweed (pigweed; [3]): 0; Pigweed plant response rating (0 to 100 scale, 0 is no effect, 100 is complete control) (pigweed; Postemergence, 500 g ai/ha): 0; Plant response rating, Ducksalad (ducksalad; 1000 g ai/ha): 80; Plant response rating, Rice (rice; 1000 g ai/ha): 0; Plant response rating, Barnyardgrass (barnyardgrass [2]; [3]): 0; Barnyardgrass plant response rating (0 to 100 scale, 0 is no effect, 100 is complete control) (barnyardgrass [2]; Postemergence, 500 g ai/ha): 70; Plant response rating, Corn (corn; [3]): 0; Corn plant response rating (0 to 100 scale, 0 is no effect, 100 is complete control) (corn; Postemergence, 500 g ai/ha): 0; Plant response rating, Velvetleaf (velvetleaf; [3]): 0; Velvetleaf plant response rating (0 to 100 scale, 0 is no effect, 100 is complete control) (velvetleaf; Postemergence, 500 g ai/ha): 40; Plant response rating, Wheat (wheat; [3]): 0; Wheat plant response rating (0 to 100 scale, 0 is no effect, 100 is complete control) (wheat; Postemergence, 500 g ai/ha): 0; Plant response rating, Foxtail, Giant (giant foxtail; [3]): 50; Foxtail, Giant plant response rating (0 to 100 scale, 0 is no effect, 100 is complete control) (giant foxtail; Postemergence, 500 g ai/ha): 50; Plant response rating, Crabgrass, Large (crabgrass, large; [3]): 90; Crabgrass, Large plant response rating (0 to 100 scale, 0 is no effect, 100 is complete control) (crabgrass, large; Postemergence, 500 g ai/ha): 80; Plant response rating, Morningglory (morningglory; [3]): 0; Morningglory plant response rating (0 to 100 scale, 0 is no effect, 100 is complete control) (morningglory; Postemergence, 500 g ai/ha): 0
O=C1NCC(c2ccc(F)c(F)c2)C1C(=O)Nc1cccc(C(F)(F)F)n1 (racemic) [Compound 245]			40	30			30	20	0	0	20	0	0	0	20	70	20	80	0	0	Plant response rating, Sedge, Umbrella (sedge, umbrella; 1000 g ai/ha): 0; Plant response rating, Barnyardgrass (barnyardgrass [1]; 1000 g ai/ha): 20; Plant response rating, Pigweed (pigweed; [6]): 40; Plant response rating, Pigweed (pigweed; [7]): 0; Plant response rating, Ducksalad (ducksalad; 1000 g ai/ha): 90; Plant response rating, Rice (rice; 1000 g ai/ha): 0; Plant response rating, Barnyardgrass (barnyardgrass [2]; [6]): 50; Plant response rating, Barnyardgrass (barnyardgrass [2]; [7]): 20; Plant response rating, Corn (corn; [6]): 0; Plant response rating, Corn (corn; [7]): 0; Plant response rating, Velvetleaf (velvetleaf; [6]): 40; Plant response rating, Velvetleaf (velvetleaf; [7]): 0; Plant response rating, Wheat (wheat; [6]): 40; Plant response rating, Wheat (wheat; [7]): 0; Plant response rating, Foxtail, Giant (giant foxtail; [6]): 30; Plant response rating, Foxtail, Giant (giant foxtail; [7]): 60; Plant response rating, Crabgrass, Large (crabgrass, large; [6]): 30; Plant response rating, Crabgrass, Large (crabgrass, large; [7]): 60; Plant response rating, Morningglory (morningglory; [6]): 0; Plant response rating, Morningglory (morningglory; [7]): 0
O=C1NCC(c2ccc(OC(F)(F)F)cc2)C1C(=O)Nc1ccccc1F (racemic) [Compound 256]	50	0	0	0	60	0	0	20	0	0	0	0	0	0	40	60	70	90	0	0	Plant response rating, Pigweed (pigweed; [6]): 0; Plant response rating, Pigweed (pigweed; [7]): 0; Plant response rating, Barnyardgrass (barnyardgrass [2]; [6]): 20; Plant response rating, Barnyardgrass (barnyardgrass [2]; [7]): 0; Plant response rating, Corn (corn; [6]): 0; Plant response rating, Corn (corn; [7]): 0; Plant response rating, Velvetleaf (velvetleaf; [6]): 0; Plant response rating, Velvetleaf (velvetleaf; [7]): 0; Plant response rating, Wheat (wheat; [6]): 20; Plant response rating, Wheat (wheat; [7]): 0; Plant response rating, Foxtail, Giant (giant foxtail; [6]): 70; Plant response rating, Foxtail, Giant (giant foxtail; [7]): 20; Plant response rating, Crabgrass, Large (crabgrass, large; [6]): 90; Plant response rating, Crabgrass, Large (crabgrass, large; [7]): 80; Plant response rating, Morningglory (morningglory; [6]): 0; Plant response rating, Morningglory (morningglory; [7]): 0
O=C1NCC(c2ccc(OC(F)(F)F)cc2)C1C(=O)Nc1ccccc1C(F)(F)F (racemic) [Compound 258]	40	0	0	0	60	0	40	90	0	0	0	0	0	0	60	90	80	90	0	0	Plant response rating, Pigweed (pigweed; [6]): 0; Plant response rating, Pigweed (pigweed; [7]): 0; Plant response rating, Barnyardgrass (barnyardgrass [2]; [6]): 80; Plant response rating, Barnyardgrass (barnyardgrass [2]; [7]): 20; Plant response rating, Corn (corn; [6]): 20; Plant response rating, Corn (corn; [7]): 0; Plant response rating, Velvetleaf (velvetleaf; [6]): 0; Plant response rating, Velvetleaf (velvetleaf; [7]): 0; Plant response rating, Wheat (wheat; [6]): 30; Plant response rating, Wheat (wheat; [7]): 0; Plant response rating, Foxtail, Giant (giant foxtail; [6]): 80; Plant response rating, Foxtail, Giant (giant foxtail; [7]): 50; Plant response rating, Crabgrass, Large (crabgrass, large; [6]): 90; Plant response rating, Crabgrass, Large (crabgrass, large; [7]): 90; Plant response rating, Morningglory (morningglory; [6]): 0; Plant response rating, Morningglory (morningglory; [7]): 0

Source: patent US10294202B2, “Pyrrolidinones as herbicides” (FMC Corporation, priority 2013, dated 2019)
